Results taken from article PMC5201116, “Bioactive Flavonoids and Catechols as Hif1 and Nrf2 Protein Stabilizers - Implications for Parkinson’s Disease” (Aging and Disease, 2016).
Read-outs that look alike come from different tables or passages of the source.

Key:
[1] = tested on: HIF1 ODD-luc reporter (SH-SY5Y cell line); assay: HIF1 ODD-luc reporter assay; type: cell-based; conditions: for ODD-luc fold activation / fold induction at 10 µM: at 10 µM, 3 h incubation; for fold induction at 10 µM: 3 h, read-out: ODD-luc fold activation
Procedure: (§1) SH-SY5Y cell lines stably expressing HIF1 ODD-luc or Neh2-luc reporters were grown in the DMEM/F12 supplemented with GlutaMAX (Thermo Fisher Scientific) containing 10% FBS, 100 U/ml penicillin, and 100 μg/ml streptomycin and plated into 384-well white flat-bottom plates at 7,000 cell/well in 30 µl serum and incubated overnight at 37°C, 5% CO2. The next day compounds were added to a final concentration of 10 µM and the plates were incubated for 3 hours at 37°C. Reporter activation after 3 h incubation with the studied compound was compared to that for ciclopirox (HIF1 ODD-luc reporter) or TBHQ (Neh2-luc reporter), taken as 100%. Luciferase reporter activity was measured with a SteadyGlo reagent from Promega providing stable reading for 1 h.
(§2) Cells were plated at the density of 25,000 cell per well using a WellMate multichannel dispenser from Matrix (Thermo Fisher Scientific, Waltham, MA) and grown overnight on DMEM/F12+GlutaMAX (100 µl per well). Then an inhibitor was added, and the plates were incubated for a fixed time interval; the medium was removed, cells lysed, and luciferase activity was measured on a SpectraMax M5e platereader (Molecular Devices, Sunnyvale, CA) with BrightGlo™ reagent (Promega, Madison, WI). The reporter activation was normalized to the background luminescence. The effect of 0.5 mM N-acetylcysteine (NAC) was studied by simultaneous addition of 5 µL of 10 mM stock of NAC in water and 2 µL of 50x stock solutions of a flavonoid in DMSO.

[2] = tested on: HRE-luciferase reporter (HT22 hippocampal cell line); assay: HRE-luc reporter assay; type: cell-based; conditions: for fold induction at 10 µM: Mus musculus, HT-22, 3 h, read-out: HRE-luc fold activation; for fold induction at 10 µM / HRE-luc fold activation: at 10 µM
Source text: A promoter-reporter construct that contained 68 bp of a known hypoxia and HIF-1 regulated gene, enolase, containing a wild type hypoxia response element (HRE, 5’-RCTGT-3’), is a widely used approach for screening for HIF activators of different mechanism of action. A cell-based assay with HRE-luciferase reporter system is based on transfected immortalized hippocampal cell line (HT22) and allows screening for a broad spectrum of compounds that include: activators of HIF transcription; activators of HIF binding to HRE; and effectors of HIF protein stability (PHD inhibitors, pVHL & proteasome inhibitors). The assay was performed the same way as for HIF ODD-luc reporter except the cells were plated at the density of 10,000 cell per well and incubated overnight.

[3] = tested on: Neh2-luc reporter (SH-SY5Y cell line); assay: Neh2-luc reporter assay; type: cell-based; conditions: for Neh2-luc fold activation / fold induction at 10 µM: at 10 µM, 3 h incubation; for EC50: Neh2-luc; for fold induction at 10 µM: read-out: Neh2-luc fold activation
Procedure: as §1, §2

[4] = Iron binding constant, calcein displacement assay; type: physicochemical; conditions: calcein displacement
Source text: Calcein displacement assay in the presence of varied concentrations of flavonoids and catechols has been used. Calcein release from its complex with iron was monitored by fluorescence as described in [26].

[5] = Non-enzymatic ferricyanide reduction rate constant; type: physicochemical; conditions: 1 mM ferricyanide, pH 7.0
Procedure: The rate of ferricyanide reduction by individual flavonoids was measured spectrophotometrically at 420 nm with the fixed concentration of ferricyanide (1 mM) and varied concentrations of a flavonoid in Potassium-phosphate buffer, pH 7.0. The rate constant for direct ferricyanide reduction was calculated from the slope of the dependence reaction rate vs flavonoid concentration and used as a measure of flavonoid non-specific reducing power.

[6] = set-up: method as in PMID 17112238; conditions: cited from earlier work
[7] = molecular target: HIF PHD2; conditions: competitive with α-KG; read-out: PHD2 Ki; cited from earlier work
[8] = molecular target: HIF prolyl hydroxylase; set-up: method as in PMID 3011801; conditions: enzyme in vitro assay; read-out: enzyme inhibition constant; cited from earlier work
[9] = molecular target: T1, Rabbit Reticulocyte 15-LOX-1 (Oryctolagus cuniculus, UniProt P12530); assay: Rabbit LOX 12/15 (rabbit reticulocyte 15-LOX-1) activity; type: biochemical; conditions: compounds at 25 µM, Fig. 4A
T1 sequence (P12530 1-663): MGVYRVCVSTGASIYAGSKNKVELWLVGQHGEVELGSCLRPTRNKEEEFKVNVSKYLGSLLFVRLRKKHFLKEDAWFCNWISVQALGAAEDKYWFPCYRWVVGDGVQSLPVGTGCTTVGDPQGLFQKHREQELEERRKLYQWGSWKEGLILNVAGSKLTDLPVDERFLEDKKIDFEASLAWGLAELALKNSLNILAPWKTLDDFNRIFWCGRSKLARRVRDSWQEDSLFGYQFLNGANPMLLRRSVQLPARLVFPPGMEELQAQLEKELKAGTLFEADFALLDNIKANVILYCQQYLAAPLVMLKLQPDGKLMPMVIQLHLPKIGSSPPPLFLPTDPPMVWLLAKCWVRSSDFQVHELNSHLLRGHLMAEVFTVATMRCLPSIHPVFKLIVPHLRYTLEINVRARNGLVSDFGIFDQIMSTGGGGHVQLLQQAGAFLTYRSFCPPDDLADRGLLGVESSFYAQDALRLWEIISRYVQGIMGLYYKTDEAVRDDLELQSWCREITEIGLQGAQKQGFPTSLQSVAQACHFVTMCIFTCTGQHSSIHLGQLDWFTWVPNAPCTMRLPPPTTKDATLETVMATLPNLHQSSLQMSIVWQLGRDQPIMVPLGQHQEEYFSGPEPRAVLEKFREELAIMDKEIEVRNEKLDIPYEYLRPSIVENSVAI
Procedure: The activity of the purified enzyme was measured in the end-point in vitro assay of arachidonic acid oxidation following the formation of fluorescent diphenyl-1-pyrenylphosphine oxide. DMSO was used as a control.

[10] = tested on: primary neuronal cultures treated with 5 mM HCA; assay: Glutathione depletion (HCA) model, MTT viability; type: cell-based, rat; conditions: for concentration at which neuroprotection begins: glutathione depletion model, Fig. 5; for EC50: Rattus norvegicus, results not shown, read-out: EC50 of protection in glutathione depletion model
Procedure: Primary neuronal cultures were prepared from the forebrains of Sprague-Dawley rat embryos (E17) and plated on 96 well plates at a 10^6 cells/ml density. After 24 hours, cells were rinsed with warm PBS and then placed in minimum Essential Medium (MEM; Life Technologies, Grand Island, NY) containing 5 mM HCA in the presence of a compound of interest at varied concentrations. Cells were incubated for 24 h or longer to see 90% cell death in HCA treated controls. Viability was assessed by the MTT (4,5-dimethylthiazol-2-yl)-2,5-diphenyltetrazolium bromide) assay.

[11] = tested on: VEGF mRNA in immature primary cortical neurons; assay: VEGF mRNA induction, real-time RT-PCR; type: cell-based; conditions: overnight pretreatment, Fig. 4B
Procedure: For VEGF gene expression studies, total RNA was isolated from immature primary cortical neurons, pretreated overnight with the indicated concentration of a bioactive compound, using the NucleoSpin RNA II kit (Macherey-Nagel, Bethlehem, PA) according to manufacturer’s protocol. Real-time PCR was performed in triplicate as a duplex reaction using a VEGF (Mm01281449_m1) gene expression assay with a 6-carboxyfluorescein-labeled probe, and a β actin gene expression assay with a VIC-labeled probe (Applied Biosystems, Foster City, CA), so that gene amplification could be normalized to β actin. These experiments were performed using a 7500 Real-time PCR System (Applied Biosystems) using standard PCR protocol and amplification conditions.

[12] = simultaneous addition of 0.5 mM NAC, results not shown

Row | Structure (SMILES) | ODD-luc fold activation [1] | fold induction at 10 µM [2] | Neh2-luc fold activation [3] | Iron complex Diss. Const [4] | FC red Rate Const [5] | EHOMO [6] | EC50 ([3]; Homo sapiens, SH-SY5Y) | fold induction at 10 µM ([1]; Homo sapiens, SH-SY5Y) | fold induction at 10 µM ([3]; Homo sapiens, SH-SY5Y) | concentration at which neuroprotection begins [10] | also measured
1 | O=c1cc(-c2ccccc2)oc2cc(O)c(O)c(O)c12 [compound 17, Baicalein] | Inactive | 5 ± 0.6 | Inactive | 2.5 ± 0.3 µM | 25500 ± 3000 M⁻¹ s⁻¹ | -8.99 eV | – | – | – | – | Ki [7]: 7 µM
2 | CCOC(=O)c1ccc(O)c(O)c1 [compound 32, Ethyl 3,4-dihydroxybenzoate, reference compound] | – | – | Inactive | 2.5 ± 0.3 µM | – | – | 20 µM | – | – | – | ODD-luc: concentration above which active [1]: Active above 50 µM; ODD-luc: concentration above which active ([1]; listed as DHB): above 50 µM; HRE-luc: concentration above which active [2]: Active above 20 µM; Ki [8]: 5 µM
3 | O=c1cc(-c2ccc(O)c(O)c2)oc2cc(O)cc(O)c12 [compound 18, Luteolin] | – | 2 ± 0.25 | – | 3.5 ± 0.4 µM | 130000 ± 15000 M⁻¹ s⁻¹ | -9.09 eV | 2 µM | 2.5 ± 0.3 | 5 ± 0.6 | 1.2 µM | LOX inhibition [9]: equipotent as LOX inhibitors
4 | O=c1c(O)c(-c2ccccc2)oc2cc(O)cc(O)c12 [compound 8, Galangin] | Inactive | 1.3 ± 0.2 | Inactive | 3.5 ± 0.4 µM | 48000 ± 6000 M⁻¹ s⁻¹ | -8.90 eV | – | – | – | – | –
5 | O=c1c(-c2ccc(O)c(O)c2)coc2cc(O)ccc12 [compound 27, 3’-Hydroxy-daidzein] | 2.5±0.3 fold | – | 15±2 fold | 3.5 ± 0.4 µM | – | – | – | – | – | 2.5 µM | HRE-luc fold activation [2]: 2.5±0.3 fold; EC50 [3]: 5 µM; Neh2-luc fold activation ([3]; listed as 3’-hydroxydaidzein): active; neuroprotection in glutathione depletion model [10]: protective
6 | O=c1cc(-c2ccc(O)c(O)c2)oc2ccccc12 [compound 19, 3’,4’-dihydroxyflavone] | – | 2 ± 0.25 | – | 2.5 ± 0.3 µM | – | – | 2 µM | 2.5 ± 0.3 | 15 ± 2 | – | Induction of VEGF mRNA [11]: mild inducers
7 | O=c1c(O)c(-c2ccc(O)c(O)c2)oc2cc(O)ccc12 [compound 10, Fisetin] | – | 2 ± 0.2 | – | 2.7 ± 0.3 µM | 301000 ± 34000 M⁻¹ s⁻¹ | -8.69 eV | 2 µM | 1.6 ± 0.2 | 23 ± 3 | 2.5 µM | effect of NAC on Neh2-luc reporter activation [3, 12]: no effect; LOX inhibition [9]: equipotent as LOX inhibitors
8 | O=c1c(O)c(-c2ccc(O)cc2)oc2cc(O)cc(O)c12 [compound 9, Kaempferol] | Inactive | 1.5 ± 0.2 | – | 2.5 ± 0.3 µM | 369000 ± 42000 M⁻¹ s⁻¹ | -8.74 eV | 5 µM | – | 15 ± 2 | – | drop in Neh2-luc reporter activation with NAC [3, 12]: 2 fold
9 | N[C@@H](Cc1ccc(O)c(O)c1)C(=O)O [compound 29, 3,4-Dihydroxy-L-phenylalanine, reference compound] | – | 1.7 ± 0.2 | Inactive | 2.5 ± 0.3 µM | – | – | 20 µM | 2 ± 0.25 | – | – | EC50 ([1]; Homo sapiens, SH-SY5Y): 15 µM; EC50 [10]: 6 µM
10 | C[C@@](Cc1ccc(O)c(O)c1)(NN)C(=O)O [compound 31, N-Aminomethyldopa, reference compound] | Inactive | – | Inactive | 2.5 ± 0.3 µM | – | – | 20 µM | – | – | – | HRE-luc fold activation [2]: Inactive; EC50 [10]: > 20 µM
